The source of these data is patent US20170266257A1, “METHODS OF TREATING TRAUMATIC BRAIN INJURY” (OXEIA BIOPHARMACEUTICALS, INC., priority 2014, published 2017).

In one assay the target is GHS-R (Homo sapiens, UniProt Q92847). Nature of the assay: cell based assay of GHS-R antagonist activity (Table 4).
The test system of assay [1] is rat model of Parkinson's disease. The following applies: cited from earlier work.
The test system of another assay is ischemic brain injury. The conditions noted are these: after ischemic brain injury; cited from earlier work.

Sequence of GHS-R (Q92847 whole entry): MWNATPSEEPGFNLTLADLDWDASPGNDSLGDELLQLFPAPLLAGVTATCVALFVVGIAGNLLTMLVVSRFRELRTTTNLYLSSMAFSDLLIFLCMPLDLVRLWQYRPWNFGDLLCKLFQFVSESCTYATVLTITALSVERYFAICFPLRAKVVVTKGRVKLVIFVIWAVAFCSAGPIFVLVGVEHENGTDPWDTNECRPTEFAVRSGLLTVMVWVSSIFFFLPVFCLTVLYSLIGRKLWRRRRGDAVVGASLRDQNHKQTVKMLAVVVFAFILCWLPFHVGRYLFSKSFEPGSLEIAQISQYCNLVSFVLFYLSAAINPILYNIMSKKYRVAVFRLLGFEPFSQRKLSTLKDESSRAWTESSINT

As usually defined, the Ki is the dissociation constant of the complex between target and ligand, obtained from inhibition or displacement. “3-Diethylamino-propane-1-sulfonic acid {(R)-1-[3-(5-bromo-pyridin-3-yl)-[1,2,4]oxadiazol-5-yl]-phenyl-propyl}-amide [Compound 103]” showed an inhibition constant Ki on GHS-R of 0.1 to 0.5 µM.

For `CCN(CC)CCCS(=O)(=O)N[C@H](CCc1ccccc1)c1nc(-c2cncn2C)n[nH]1` [Compound 135], on GHS-R, the Ki is < 0.1 µM.

In the case of `C=CC[C@]12CCCN1C(=O)CNC2=O` [NNZ-2591, cyclo-L-glycyl-L-2-allylproline], the motor function entry in assay [1] is “improves motor function”. Moreover, the neuroprotection entry with ischemic brain injury is listed as “neuroprotective”.
